# Ends that are not written are not given here.
# How the values were obtained:
# [1] = system: human MSCs (mixed with IM-9 and U937 cells); assay: Capture of MSCs from a mixed cell population with peptide on CELLECTION magnetic beads; assay type: cell-based; details: starting mixture 38% IM9, 56% U937, 4% MSC
# Text: In this experiment, biotinylated cell binding peptide, SEQ ID NO: 16, was attached to CELLECTION magnetic beads. The CELLECTION beads have streptavidin coupled to a magnetic particle through a DNA linker. Three different cell types, human MSCs, IM-9, and U937 cells were differentially labeled with […] dye and mixed in a ratio such that the MSCs represented ˜4% of the starting cell mixture (the percentage of each cell type in the starting mixture was 38% IM9, 56% U937, and 4% MSC). The cell binding peptide, SEQ ID NO: 16, was biotinylated as described herein at Example 2, as was a general cell binding peptide for use as a control peptide in the experiment. Magnetic particles with no peptide attached, as well as magnetic beads having attached either the cell binding peptide, SEQ ID NO: 16, or the control peptide were tested for their ability to capture human MSCs. The starting cell mixture was incubated with magnetic beads having either attached peptide or no peptide, the beads were washed, and the captured cells were released from the beads by DNase treatment. The cells were measured by flow cytometry histograms shown in 18A-18C. The magnetic beads without peptide captured little or no cells (FIG. 18B). The magnetic beads with attached cell binding peptide SEQ ID NO: 16 captured a cell population that was 96% MSCs (FIG. 18C).
# TGF-β3 = target: T1, TGF-β3 (Homo sapiens, UniProt P10600); assay: ELISA-type binding of growth factor to biotinylated peptide on streptavidin plates; details: peptide 0.2 μM on streptavidin plate, TGF-β3 1 μM-1 nM
# T1 sequence (P10600 301-412 limits assumed): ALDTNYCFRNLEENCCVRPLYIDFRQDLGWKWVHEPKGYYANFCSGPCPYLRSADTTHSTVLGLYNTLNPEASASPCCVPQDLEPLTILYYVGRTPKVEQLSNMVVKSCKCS
# Text: Peptides that bind TGF-β3 were identified by phage display biopanning. Recombinant human TGF-β3 (rhTGF-β3) was biotinylated and immobilized on streptavidin-coated microtiter plates. Twenty-two different phage display libraries were used for the selection. Enrichment of target-binding phage in the selection was monitored using an ELISA-type assay with an HRP-conjugated anti-M13 antibody. After enrichment for TGF-β3 specific phage, individual phage were picked, propagated on E. coli, and tested for binding to TGF-β3. Over 20 individual phage were isolated that bound TGF-β3. […] The TGF-β3-binding peptide sequences were then synthesized using standard solid-phase peptide synthesis techniques on a Symphony Peptide Synthesizer (PROTEIN TECHNOLOGIES, Tucson, Ariz.) using standard Fmoc chemistry as described herein above at Example 2. Biotinylated peptides were generated similarly, with a GSSGK(biotin) sequence added to the C-terminus of the peptide.
# The TGF-β binding peptides with the biotin moiety on their C-terminus were tested for their ability to bind the target growth factor using the following methods. Streptavidin-coated plates were first prepared by generating a 1:100 dilution of streptavidin (1 mg/mL) in 0.1M NaHCO3 buffer. […] To reveal immunoreactivity, 100 μL of para-nitrophenyl phosphate solution was added to each well, and optical density was recorded on a spectrophotometer.
# [2] = system: human ASCs (adipose-derived mesenchymal stem cells); assay: Biotinylated peptide cell binding specificity, flow cytometry with Neutravidin-PE; details: 25 μM solution, 30 min at 4° C.
# Text: (§1) The synthetic biotinylated cell binding peptide SEQ ID NO: 4 was examined for its ability to specifically bind MSCs compared to a number of other cells types including adipose-derived mesenchymal stem cells (ASCs), dermal fibroblasts, rodent MSCs, red blood cells, monocytes, lymphocytes and granulocytes. The cell binding peptide was biotinylated as described herein at Example 2. Cultured cells of each type were either purchased (ASCs and dermal fibroblasts) or isolated from rodent bone marrow (rodent MSCs) or human blood. Cells were first harvested and resuspended at 10^6/mL in PBS+2% fetal bovine serum (FBS). An aliquot of cells (50 μL) was incubated in 50 μL of peptide solution (25 μM in PBS+FBS) for 30 min at 4° C. Cells were then washed twice in PBS+FBS with 300×g centrifugation for 5 min between washes. Fluorescently-tagged neutravidin (Neutravidin-PE from INVITROGEN) was then added to the cells to label biotinylated peptide bound to cells. Neutravidin-PE was diluted 1:250 from stock and applied at 50 μL to cells. Cells were then washed in PBS+FBS, and acquired on a BD […]. Peptide reactivity was then measured as percent positivity relative to Neutravidin-PE staining without the addition of biotinylated peptide.
# human MSCs = assay: as above; details: 25 μM solution, 30 min at 4° C.
# Text: as §1
# [3] = system: human umbilical vein endothelial cells (HUVECs); assay: Biotinylated peptide binding to endothelial and other cells, flow cytometry; details: biotinylated peptide 10 μM, 30 min at 4° C.
# Experimental: (§2) The synthetic biotinylated binding peptide SEQ ID NO: 4 was further examined for its ability to bind endothelial cells compared to other cell types (see FIG. 16). […] ECFCs are clonally expanded cells isolated from human umbilical cord blood, and are considered highly proliferative endothelial progenitor cells (EPCs) based on their clonogenic and proliferative potential. In another experiment, binding peptide SEQ ID NO: 4 was assayed for its ability to selectively isolate endothelial cells versus smooth muscle cells in the presence of whole blood. HUVECs or UASMCs were incubated in the presence of medium containing 20% whole blood and binding peptide SEQ ID NO: 4-conjugated magnetic beads (via biotin-SA) for 30 min. The solutions containing the bead-peptide-cell complexes were then passed through a […] LS column in a magnetic field. The column was washed, and the remaining peptide-bound cells were then released from the magnetic field and counted.
# [4] = system: umbilical artery smooth muscle cells (UASMCs); assay: as above; details: biotinylated peptide 10 μM, 30 min at 4° C.
# Experimental: as §2
# dermal fibroblasts = assay: Biotinylated peptide cell binding specificity, flow cytometry with Neutravidin-PE; parameters: species or system human; details: 25 μM solution, 30 min at 4° C.
# Text: as §1
# [5] = system: endothelial colony forming cells (ECFCs); assay: Biotinylated peptide binding to endothelial and other cells, flow cytometry; parameters: species or system human; details: biotinylated peptide 10 μM, 30 min at 4° C.
# Experimental: as §2
sequence,measurement,setting,value
"SSFRFGPLGTWNYPSTDNAE (also: biotin, site not given here) [SEQ ID NO: 16, tested biotinylated]",MSCs in captured cell population,[1],96%
"SSCNNLSVCTFDKIIERNRSSR (SSCNNLSVCTFDKIIERNRSSRGSSG-{K(biotin)}; cysteine pairing not given here) [SEQ ID NO: 21, tested with C-terminal GSSGK(biotin)]",binding affinity for TGF-β3,TGF-β3,best binding affinity
"SSFWDVCQGDGTCYGGGSR (SSFWDVCQGDGTCYGGGSRGSSG-{K(biotin)}; cysteine pairing not given here) [SEQ ID NO: 4, tested biotinylated (C-terminal GSSGK(biotin) or other spacer)]",binding to human ASCs (percent positivity relative to Neutravidin-PE staining),[2],high binding
same,binding to human MSCs (percent positivity relative to Neutravidin-PE staining),human MSCs,high binding
same,cross-reactivity with HUVECs,[3],cross-reacted strongly
same,cross-reactivity with UASMCs,[4],weakly
same,binding to dermal fibroblasts (percent positivity relative to Neutravidin-PE staining),dermal fibroblasts,high binding
same,cross-reactivity with ECFCs,[5],cross-reacted strongly

# Source: patent US20110117169A1, “METHODS AND COMPOSITIONS FOR CAPTURE OF CELLS” (AFFINERGY, INC., priority 2009, published 2011)
